Measurements published in US10631540B2, “Plant disease control composition, and plant disease control method” (Sumitomo Chemical Company, Limited, priority 2015, dated 2020).

Legend:
[1] = system: Pythium damping-off pathogen (Pythium irregulare); experiment: Soybean seed treatment test against Pythium damping-off (Test Example 1); assay type: in vivo; conditions: soybean (Hatayutaka) seed treatment; dose rate gai/100 kg seed where present: ethaboxam 3.75, metalaxyl 1.0, oxathiapiprolin 3.75; grown 15° C. 5 days then 25° C. 10 days
Description: An acetone solution containing the compounds was prepared such that the amounts of compounds to be treated for seeds were set to the dose rate listed in Table 1. 10 g of seeds of soybean (Hatayutaka) and 80 μl of the acetone solution were added to a plastic container, the container was covered with a lid and then shaken, and then the seeds taken out of the container were left overnight, thereby obtaining treated seeds. A plastic pot was filled with culture soil, and the treated seeds were sowed and then were covered with culture soil mixed with seeds of grass turf which was infected with Pythium damping-off pathogen (Pythium irregulare). After irrigation, the seeds were grown at 15° C. for 5 days and then grown at 25° C. for 10 days. This area was set to a treated area. Further, soybeans were grown in the same manner as in the treated area except that a chemical agent was not applied to the seeds. This area was set to a non-treated area. The incidence of disease of plants in the treated area and the non-treated area were calculated using the following “Equation 1”. The control values were calculated using the following “Equation 2”. […] A: Incidence of disease of plants of non-treated area B: Incidence of disease of plants of treated area

[2] = system: Pythium damping-off pathogen (Pythium ultimum); experiment: Soybean seed treatment test against Pythium damping-off (Test Example 2); assay type: in vivo; conditions: soybean (Hatayutaka) seed treatment; dose rate gai/100 kg seed where present: ethaboxam 3.75, metalaxyl 1.0, oxathiapiprolin 3.75; grown 15° C. 5 days then 25° C. 10 days
Description: An acetone solution containing the compounds was prepared such that the amounts of compounds to be treated for seeds were set to the dose rate listed in Table 2. 10 g of seeds of soybean (Hatayutaka) and 80 μl of the acetone solution were added to a plastic container, the container was covered with a lid and then shaken, and then the seeds taken out of the container were left overnight, thereby obtaining treated seeds. A plastic pot was filled with culture soil, and the treated seeds were sowed and then were covered with culture soil mixed with seeds of grass turf which was infected with Pythium damping-off pathogen (Pythium ultimum). After irrigation, the seeds were grown at 15° C. for 5 days and then grown at 25° C. for 10 days. This area was set to a treated area. Further, soybeans were grown in the same manner as in the treated area except that a chemical agent was not applied to the seeds. This area was set to a non-treated area. The incidence of disease of plants in the treated area and the non-treated area were calculated using the above-described “Equation 1”. The control values were calculated using the above-described “Equation 2”.

Compound | Control value (%) [1] [%] | Control value (%) [2] [%]
COCC(=O)N(c1c(C)cccc1C)C(C)C(=O)OC (racemic) [Metalaxyl, metalaxyl] | 6 | 0
CCNc1nc(CC)c(C(=O)NC(C#N)c2cccs2)s1 (stereo not drawn) [Ethaboxam, ethaboxam] | 9 | 14
Cc1cc(C(F)(F)F)nn1CC(=O)N1CCC(c2nc(C3=NOC(c4c(F)cccc4F)C3)cs2)CC1 (stereo not drawn) [Oxathiapiprolin, oxathiapiprolin] | 6 | 14
